Reference: publication PMC11502347 (Frontiers in Microbiology, 2024)

Tests used:
[1] = test system: Mtb CF 44 (mono-resistant to isoniazid); type: cell-based, Mycobacterium tuberculosis; settings: Mono INH clinical isolate; REMA, 7H9 + 10% OADC, 7 days
[2] = test system: Mtb CF 184 (mono-resistant to isoniazid); type: cell-based, Mycobacterium tuberculosis; settings: Mono INH clinical isolate; REMA, 7 days

Compound | CIM90 CF 44 [1] | CIM90 CF 184 [2]
NNC(=O)c1ccncc1 [INH, isoniazid] | > 182,30 μM | > 182,30 μM
O=C(Nc1ccc(N2CCSCC2)c(F)c1)c1ccc2no[n+]([O-])c2c1 [Compound 5b] | 0,52 ± 0,09 μM | 0,37 ± 0,15 μM
O=C(Nc1ccc(N2CCN(c3ccccn3)CC2)c(F)c1)c1ccc2no[n+]([O-])c2c1 [Compound 5n] | 4,71 ± 3,11 μM | 0,96 ± 1,04 μM
NCC[C@H](O)C(=O)N[C@@H]1C[C@H](N)[C@@H](O[C@H]2O[C@H](CN)[C@@H](O)[C@H](O)[C@H]2O)[C@H](O)[C@H]1O[C@H]1O[C@H](CO)[C@@H](O)[C@H](N)[C@H]1O [AMK, amikacin] | 1,48 ± 1,12 μM | 0,24 ± 0,00 μM
CO[C@H]1/C=C/O[C@@]2(C)Oc3c(C)c(O)c4c(O)c(c(/C=N/N5CCN(C)CC5)c(O)c4c3C2=O)NC(=O)/C(C)=C\C=C\[C@H](C)[C@H](O)[C@@H](C)[C@@H](O)[C@@H](C)[C@H](OC(C)=O)[C@@H]1C [RFP, rifampicin] | 0,05 ± 0,01 μM | 0,05 ± 0,01 μM
